Assay results: patent US20220241247A1, “PHARMACOLOGICAL AGENTS FOR TREATING PROTEIN AGGREGATION DISEASES OF THE EYE” (PLEX PHARMACEUTICALS, INC., priority 2019, published 2022)
pEC50: −log10 of the molar value. Where two headings read alike, the source gives them in different places.

How the values were obtained:
[1] = tested on: human lens soluble extracts; assay: UV-induced opacification of human lens lysate; type: biochemical; details: UV radiation
Description: (§1) Both bovine and human lens lysates contain AAC as well as multiple endogenous client proteins, all of which are present at physiological ratios in a physiologically-relevant milieu of ions, redox pairs and antioxidants.

[2] = Estimated maximum concentration in the lens after topical ophthalmic dosing; details: meglumine formulated; topical ophthalmic bioavailability 2-5%
Description: (§2) Therefore, in order to improve the aqueous solubility and bioavailability, the present disclosure provides prodrugs of CAP4349.

[3] = tested on: HLE cell line SRA 01/04 cells; assay: Heat-induced cell death of human lens epithelial cells; type: cell-based; details: pre-incubated 2 hours; 50° C. for 40 m
Description: (§3) Efficacy of CAP4349 in protection of human lens epithelial cells from stress, as a measure of cellular AC function: Heating of intact human lenses dramatically promotes conversion of soluble AC into HMW aggregates and AC is responsible for protecting human lens epithelial (HLE) cells from thermal stress induced cell death (Peschek J et al. (2009), Proc. Natl. Acad. Sci. USA. 106(32):13272-13277). Survival of HLE cells following UV stress also depends on AC activity (Kumar P. et al., (2007) Biochem. J., 408:251-258). Assays for measuring cell-survival assays following heat or UV exposure were developed as a potential surrogate for AC chaperone activity. HLE cell line SRA 01/04 cells were pre-incubated for 2 hours with CAP4349 and then exposed to heat (50° C. for 40 m) or UV light (48 seconds).

[4] = tested on: bovine lens soluble extracts; assay: UV-induced opacification of bovine lens lysate; type: biochemical; details: UV radiation
Description: as §1

AAC [5] = biological target: T1, AAC (Homo sapiens, UniProt P02489); assay: Chaperone assay: UV-induced aggregation of BGC in presence of AAC; type: biochemical; details: UV radiation
T1 sequence (P02489 1-173): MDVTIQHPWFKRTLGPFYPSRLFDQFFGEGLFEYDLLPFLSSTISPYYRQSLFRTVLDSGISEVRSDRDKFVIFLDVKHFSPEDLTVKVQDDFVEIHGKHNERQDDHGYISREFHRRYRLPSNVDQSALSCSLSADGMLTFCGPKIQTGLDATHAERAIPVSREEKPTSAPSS
Procedure: (§4) Post translational modification, due to UV light, oxidation, glycation, crosslinking, and proteolysis can affect the CLA of AAC and its ability to prevent the aggregation of target proteins. These modifications lead to aggregation of other lens crystallins, which culminate in the development of lens opacity and cataract development. Since CAP4349 prevents aggregation of hACC, the effect of CAP4349 on the CLA activity of AAC was evaluated using in vitro chaperone assays with (i) lysozyme as a model client protein, and (ii) bovine γ-crystallin (BGC), as a physiologically relevant lenticular protein.
UV-Induced Aggregation of BGC: Exposure to UV radiation is a contributing factor to cataract formation. […]
The aggregation reaction was initiated by exposing the reaction mixture to UVB radiation. Aggregation was monitored for changes in light scattering by measuring absorbance at 600 nm at t=0, 15, 30 and 45 minutes. Mean percentage absorbance±SD from triplicate or quadruplicate wells plotted on a graph (FIG. 2C). EC50 value was calculated as 64.8 (±1.3) […], which is the concentration of CAP4349-M concentration producing half-maximal response of BGC aggregation in presence of AAC.

[6] = tested on: HLE cell line SRA 01/04 cells; assay: UV-induced cell death of human lens epithelial cells; type: cell-based; details: pre-incubated 2 hours; UV light 48 seconds
Description: as §3

AAC [7] = biological target: T1, AAC; assay: Chaperone assay: heat and DTT-induced aggregation of lysozyme in presence of AAC; type: biochemical; details: AAC 250, lysozyme 500 μg/ml; 10 mM DTT, 37° C.; absorbance at 400 nm
Procedure: as §4
Heat-induced aggregation of lysozyme: In the presence of a reducing agent (DTT) and heat (37° C.), lysozyme undergoes denaturation and aggregation. The CLA activity of AAC can protect lysozyme against heat and DTT-induced aggregation (Robey, R. L. et al. (1997), Journal of Heterocyclic Chemistry, 34: (2)413-428).

AAC [8] = biological target: T1, AAC; assay: UV-induced aggregation of hAAC, measured by absorbance; type: biochemical
Procedure: (§5) It was determined that CAP4349 protects hAAC from UV-induced aggregation in a concentration-dependent manner. The meglumine salt of Tafamidis (CAP4349-M) was tested for its ability to prevent hAAC aggregation using SDS/PAGE and absorbance.
In another study, hAAC, with or without CAP4349-M, was exposed to UV light for 60 minutes and the resulting aggregation was measured by absorbance. The results are shown in FIG. 1B in terms of mean percentage absorbance change±SD (n=3 or 4). The EC50 value, which is the half-maximal response of hAAC aggregation, was determined to be19.7(±1.4) μM.

[9] = tested on: AAC(R116C)-GFP in HeLa cells; assay: High-content assay for AAC aggregation (p62-positive inclusions); type: cell-based, human; details: GFP fluorescence
Procedure: Cellular effects of CAP4349 were evaluated using an automated high-content assay for AAC aggregation. AAC(R116C)-GFP has been reported to form p62 positive inclusions (p62 is known to co-localize with ubiquitinated aggregates in several protein aggregation diseases) (Neal R, et al. (2010) Mol. Vis. 16:2137-2145.). Experiments were carried out to determine whether CAP4349 had any effect on co-localization of AAC and p62 in HeLa cells.

porcine lenses = assay: UV-induced opacification of porcine lenses ex vivo; details: pretreated with 125 μM
Procedure: Porcine lenses were pretreated with 125 μM CAP4349 (or vehicle) and UV irradiated (or not). Porcine lenses (Sierra for Medical Science, Inc., Whittier, CA) have been used previously in ex vivo models of cataracts (Raju, M. (2014) Biochemistry, 53(16):2615-2623.).

[10] = tested on: HLE cell line SRA 01/04 cells; assay: Viability of human lens epithelial cells under normal conditions; type: cell-based; details: no stress
Description: as §3, with “HLE cell line SRA 01/04 cells were pre-incubated for 2 hours with CAP4349 and then exposed to heat (50° C. for 40 m) or UV light (48 seconds).” left out

AAC [11] = biological target: T1, AAC; assay: UV-induced aggregation of hAAC, SDS-PAGE; type: biochemical; details: UV light 15 minutes; 0-1000 μM; 4-20% SDS-PAGE
Procedure: as §5
hAAC, with or without CAP4349-M (meglumine salt, 0-1000 μM), was exposed to UV light for 15 minutes and analyzed on a 4-20% gradient SDS-PAGE gel.

[12] = Drug bank value; cited from earlier work
Solubility = type: physicochemical; details: for solubility: disodium salt
Procedure: as §2
To a solution of Tafamidis, CAP4349 (308 mg) in DMF (10 mL) was added K2CO3 (220 mg) and KI (132 mg) followed by di-tert-butyl chloromethyl phosphate at room temperature while stirring. The reaction mixture was stirred at 70° C. for two hours. The reaction was quenched with ice and extracted three times in Ethyl Acetate. The combined organic layer was washed with water followed by 1% aqueous solution of sodium thiosulfate, and lastly with Brine, yielding the intermediate t-butyl protected phosphate. The t-butyl protected phosphate intermediate was converted to disodium salt in two steps by cleaving the protecting group with TFA followed by NaHCO3 treatment in the presence of water and THF resulting in disodium salt of CAP4357, as a white solid.

[13] = versus meglumine salt of CAP4349

Compound: O=C(O)c1ccc2nc(-c3cc(Cl)cc(Cl)c3)oc2c1 [CAP4349, 2-(3,5-dichlorophenyl) benzo[d]oxazole-6-carboxylic acid]
- protection of human lysate from UV-induced opacification [1]: protected both bovine (FIG. 5A) and human (FIG. 5B) lysates from UV-induced opacification in a dose-dependent manner
- maximum concentration in the lens [2]: about 5 μM
- protection from heat-induced cell death [3]: protects the cells from heat-induced and UV-induced cell death in a dose-dependent manner
- protection of bovine lysate from UV-induced opacification [4]: protected both bovine (FIG. 5A) and human (FIG. 5B) lysates from UV-induced opacification in a dose-dependent manner
- protection provided by AAC against UV-induced BGC aggregation (AAC [5]): increased the protection provided by AAC against UV-induced BGC aggregation in a dose-dependent manner
- protection from UV-induced cell death [6]: protects the cells from heat-induced and UV-induced cell death in a dose-dependent manner
- protection of lysozyme from aggregation by AAC (AAC [7]): increased protection of lysozyme from aggregation
- pEC50 (AAC [8]; read-out: EC50 for the prevention of hACC aggregation (as restated in Example 7)): 4.71
- aggregates of AAC(R116C)-GFP co-localized with p62 [9]: decreased
- UV-induced opacification of porcine lenses (porcine lenses): prevent UV-induced opacification
- viability under normal conditions [10]: does not alter the viability

Compound: CNC[C@H](O)[C@@H](O)[C@H](O)[C@H](O)CO.O=C(O)c1ccc2nc(-c3cc(Cl)cc(Cl)c3)oc2c1 [CAP4349-M]
- prevention of hAAC aggregation (band intensities of aggregated and non-aggregated form) (AAC [11]): dose-dependent prevention of hAAC aggregation
- maximum solubility [12]: 0.0323 mg/mL

Compound: O=C(O)c1ccc2nc(-c3cc(Cl)cc(Cl)c3)oc2c1 [CAP4349-M]
- pEC50 (AAC [8]; UV light 60 minutes, absorbance, n=3 or 4, read-out: EC50, half-maximal response of hAAC aggregation): 4.71

Compound: O=C(OCOP(=O)(O)O)c1ccc2nc(-c3cc(Cl)cc(Cl)c3)oc2c1.[Na+].[Na+] [CAP4357]
- solubility (Solubility; aqueous with cosolvent or surfactant or cyclodextrin, 5% aqueous (2-Hydroxypropyl)-β-cyclodextrin, read-out: solubility in 5% aqueous HPBCD): 40 mg/mL
- solubility (Solubility; water, read-out: aqueous solubility): 25 mg/mL
- fold increase in HPBCD solubility (Solubility; [13]): 1,238 fold
- fold increase in aqueous solubility (Solubility; [13]): 774 fold
